Measured values published in patent US20090247559A1 (Exelixis, Inc., priority 2007, published 2009).
Read-outs that look alike come from different tables or passages of the source.

Tests used:
[1] = biological target: CK2 (Homo sapiens, UniProt P68400); experiment: CK2 inhibition, biochemical chemiluminescence holoenzyme assay (Kinase Glo, IC50 determination); settings: Table 1 activity class; symbol given only if active; read-out: CK2 IC50 (Activity C)
How it was run: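 Holoenzyme CK2 assay; compounds pre-incubated with substrate and enzyme, then reacted 150 min at 24-27° C. Remaining ATP measured as luminescence with Kinase Glo, and IC50 derived from the signal.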

[2] = biological target: PIM (PIM-1, PIM-2, and/or PIM-3); experiment: PIM-1, PIM-2 and PIM-3 inhibition, biochemical chemiluminescence assays (Kinase Glo, IC50 determination); settings: Table 1 activity class; PIM refers to PIM-1, PIM-2, and/or PIM-3; read-out: PIM IC50 (Activity B)
[3] = biological target: CDC7 (Homo sapiens, UniProt O00311); experiment: CDC7 inhibition, biochemical chemiluminescence assay (Kinase Glo, IC50 determination)
Sequence of CDC7 (O00311 whole entry): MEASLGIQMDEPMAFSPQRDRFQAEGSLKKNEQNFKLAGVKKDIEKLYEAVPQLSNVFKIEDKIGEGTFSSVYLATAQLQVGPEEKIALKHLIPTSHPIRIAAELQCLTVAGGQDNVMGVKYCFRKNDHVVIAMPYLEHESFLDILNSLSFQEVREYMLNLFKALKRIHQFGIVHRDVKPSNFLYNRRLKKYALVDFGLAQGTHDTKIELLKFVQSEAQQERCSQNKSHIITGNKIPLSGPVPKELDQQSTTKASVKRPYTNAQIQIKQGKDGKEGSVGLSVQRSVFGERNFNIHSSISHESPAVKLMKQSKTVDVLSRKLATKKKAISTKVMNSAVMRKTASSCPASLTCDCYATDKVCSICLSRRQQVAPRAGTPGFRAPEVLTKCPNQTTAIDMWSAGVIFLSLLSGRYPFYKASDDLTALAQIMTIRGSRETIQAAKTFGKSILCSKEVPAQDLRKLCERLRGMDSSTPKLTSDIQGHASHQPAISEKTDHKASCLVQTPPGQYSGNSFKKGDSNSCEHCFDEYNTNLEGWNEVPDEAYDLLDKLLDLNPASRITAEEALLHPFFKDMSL
Sequence of CDC7 (Q9UBU7 whole entry partner): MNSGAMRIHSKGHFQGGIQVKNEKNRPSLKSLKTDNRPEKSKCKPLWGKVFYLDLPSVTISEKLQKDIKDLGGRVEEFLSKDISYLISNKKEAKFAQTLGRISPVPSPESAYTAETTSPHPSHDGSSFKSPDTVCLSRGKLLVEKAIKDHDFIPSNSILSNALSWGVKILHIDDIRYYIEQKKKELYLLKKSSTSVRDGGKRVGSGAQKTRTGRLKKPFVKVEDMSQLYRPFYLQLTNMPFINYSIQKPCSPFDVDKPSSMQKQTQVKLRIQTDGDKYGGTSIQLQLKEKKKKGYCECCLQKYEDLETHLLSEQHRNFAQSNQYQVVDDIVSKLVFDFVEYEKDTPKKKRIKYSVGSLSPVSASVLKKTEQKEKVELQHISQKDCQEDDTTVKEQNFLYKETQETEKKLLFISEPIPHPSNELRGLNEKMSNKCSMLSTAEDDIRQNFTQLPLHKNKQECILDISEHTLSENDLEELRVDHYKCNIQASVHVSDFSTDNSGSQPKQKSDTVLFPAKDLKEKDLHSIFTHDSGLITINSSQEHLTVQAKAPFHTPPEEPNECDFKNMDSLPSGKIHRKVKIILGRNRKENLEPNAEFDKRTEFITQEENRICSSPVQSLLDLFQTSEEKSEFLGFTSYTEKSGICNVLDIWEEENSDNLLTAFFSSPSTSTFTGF
How it was run: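 CDC7 enzyme preincubated with compound 10 min at ambient temperature, then ATP mix in Tris Base added; reaction 90 min at 24-27 °C. Remaining ATP quantified by Kinase Glo luminescence to give IC50.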

[4] = Table 1 activity class, symbol given only if active, read-out: CDC7 IC50 (Activity A)
[5] = compounds in Table 1, read-out: CDC7 IC50 value
[6] = CDC7 IC50 (Activity A), Table 1 activity class, symbol given only if active
[7] = CDC7 IC50 value, compounds in Table 1

Sequence of CK2 (P68400 whole entry): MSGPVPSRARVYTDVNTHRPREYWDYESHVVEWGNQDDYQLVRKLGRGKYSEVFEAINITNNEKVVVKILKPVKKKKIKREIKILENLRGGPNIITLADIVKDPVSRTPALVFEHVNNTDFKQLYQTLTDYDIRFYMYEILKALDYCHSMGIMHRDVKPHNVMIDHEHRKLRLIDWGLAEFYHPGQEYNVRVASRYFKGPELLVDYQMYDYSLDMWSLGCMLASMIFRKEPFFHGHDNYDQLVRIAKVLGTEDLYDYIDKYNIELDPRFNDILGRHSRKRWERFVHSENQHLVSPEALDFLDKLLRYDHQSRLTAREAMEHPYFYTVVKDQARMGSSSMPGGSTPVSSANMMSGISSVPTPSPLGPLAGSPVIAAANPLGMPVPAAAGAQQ
Sequence of CK2 (P67870 whole entry partner): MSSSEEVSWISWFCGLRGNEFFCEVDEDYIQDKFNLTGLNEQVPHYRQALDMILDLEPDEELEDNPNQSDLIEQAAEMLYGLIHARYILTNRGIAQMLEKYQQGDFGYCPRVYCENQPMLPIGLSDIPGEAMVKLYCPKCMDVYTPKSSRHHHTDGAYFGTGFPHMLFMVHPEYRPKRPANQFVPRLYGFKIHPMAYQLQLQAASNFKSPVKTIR

Row | IC50 [1] | IC50 [2] | IC50 [3, 4] | IC50 [3, 5] | SMILES | IC50 [3, 6] | IC50 [3, 7]
1 | < 10 µM | < 10 µM | < 10 µM | < 0.1 µM | CN1CCCN(Cc2nc3c(oc4ccc(Br)cc43)c(=O)[nH]2)CC1 [Compound 426, 8-bromo-2-[(4-methyl-1,4-diazepan-1-yl)methyl][1]benzofuro[3,2-d]pyrimidin-4(3H)-one] |  | 
2 | < 10 µM | < 10 µM | < 10 µM | < 0.1 µM | COc1ccc2oc3c(=O)[nH]c([C@@H]4CC(F)(F)CN4)nc3c2c1 [Compound 531, 2-[(2S)-4,4-difluoropyrrolidin-2-yl]-8-(methyloxy)[1]benzofuro[3,2-d]pyrimidin-4(3H)-one] |  | 
3 | < 10 µM | < 10 µM | < 10 µM | < 0.1 µM | O=c1[nH]c([C@@H]2C[C@H](O)CN2)nc2c1oc1ccc(Cl)cc12 [Compound 528, 8-chloro-2-[(2S,4S)-4-hydroxypyrrolidin-2-yl][1]benzofuro[3,2-d]pyrimidin-4(3H)-one] |  | 
4 | < 10 µM | < 10 µM | < 10 µM | < 0.1 µM | CCC(C)NCc1nc2c(oc3ccc(Br)cc32)c(=O)[nH]1 (centres unmarked) [Compound 232, 8-bromo-2-{[(1-methylpropyl)amino]methyl}[1]benzofuro[3,2-d]pyrimidin-4(3H)-one] |  | 
5 | < 10 µM | < 10 µM | < 10 µM |  | Cn1ccc(C(=O)Nc2ccc(-c3nc4c(oc5ccc(Br)cc54)c(=O)[nH]3)c(Cl)c2)n1 [Compound 391] |  | 
6 | < 10 µM | < 10 µM | < 10 µM |  | Nc1ccc(C(=O)Nc2ccc(-c3nc4c(oc5ccc(Br)cc54)c(=O)[nH]3)c(Cl)c2)cn1 [Compound 439, 6-amino-N-[4-(8-bromo-4-oxo-3,4-dihydro[1]benzofuro[3,2-d]pyrimidin-2-yl)-3-chlorophenyl]pyridine-3-carboxamide] |  | 
7 | < 10 µM | < 10 µM | < 10 µM | < 0.1 µM | CO[C@H]1CCN(Cc2nc3c(oc4ccc(Br)cc43)c(=O)[nH]2)C1 [Compound 369, 8-bromo-2-{[(3S)-3-(methyloxy)pyrrolidin-1-yl]methyl}[1]benzofuro[3,2-d]pyrimidin-4(3H)-one] |  | 
8 | < 10 µM | < 10 µM | < 10 µM | < 0.1 µM | CCC(C)N(C)Cc1nc2c(oc3ccc(Br)cc32)c(=O)[nH]1 (centres unmarked) [Compound 518, 8-bromo-2-{[methyl(1-methylpropyl)amino]methyl}[1]benzofuro[3,2-d]pyrimidin-4(3H)-one] |  | 
9 | < 10 µM | < 10 µM | < 10 µM |  | Cc1cc2oc3c(=O)[nH]c(CN4CC[C@H](O)C4)nc3c2cc1Br [Compound 420, 8-bromo-2-{[(3S)-3-hydroxypyrrolidin-1-yl]methyl}-7-methyl[1]benzofuro[3,2-d]pyrimidin-4(3H)-one] |  | 
10 | < 10 µM | < 10 µM | < 10 µM |  | NC(Cc1cccs1)c1nc2c(oc3ccc(Br)cc32)c(=O)[nH]1 (centres unmarked) [Compound 538, 2-[1-amino-2-(2-thienyl)ethyl]-8-bromo[1]benzofuro[3,2-d]pyrimidin-4(3H)-one] |  | 
11 | < 10 µM | < 10 µM | < 10 µM |  | O=C(Nc1ccc(-c2nc3c(oc4ccc(Br)cc43)c(=O)[nH]2)c(Cl)c1)c1cnc2[nH]ccc2c1 [Compound 395, ′N-[4-(8-bromo-4-oxo-3,4-dihydro[1]benzofuro[3,2-d]pyrimidin-2-yl)-3-chlorophenyl]-1H-pyrrolo[2,3-b]pyridine-5-carboxamide] |  | 
12 | < 10 µM | < 10 µM | < 10 µM | < 0.1 µM | O=c1[nH]c([C@@H]2C[C@H](F)CN2)nc2c1oc1ccc(Br)cc12 [Compound 513, 8-bromo-2-[(2S,4S)-4-fluoropyrrolidin-2-yl][1]benzofuro[3,2-d]pyrimidin-4(3H)-one] |  | 
13 | < 10 µM | < 10 µM | < 10 µM |  | O=c1[nH]c(CNCc2ccccc2Cl)nc2c1oc1ccc(Br)cc12 [Compound 235, 8-bromo-2-({[(2-chlorophenyl)methyl]amino}methyl)[1]benzofuro[3,2-d]pyrimidin-4(3H)-one] |  | 
14 | < 10 µM | < 10 µM | < 10 µM |  | Cn1cnc(C(=O)Nc2ccc(-c3nc4c(oc5ccc(Br)cc54)c(=O)[nH]3)c(Cl)c2)c1 [Compound 389, N-[4-(8-bromo-4-oxo-3,4-dihydro[1]benzofuro[3,2-d]pyrimidin-2-yl)-3-chlorophenyl]-1-methyl-1H-imidazole-4-carboxamide] |  | 
15 | < 10 µM | < 10 µM | < 10 µM |  | O=C(Nc1ccc(-c2nc3c(oc4ccc(Br)cc43)c(=O)[nH]2)c(Cl)c1)c1ccncc1Cl [Compound 275, N-[4-(8-bromo-4-oxo-3,4-dihydro[1]benzofuro[3,2-d]pyrimidin-2-yl)-3-chlorophenyl]-3-chloropyridine-4-carboxamide] |  | 

The next lines start with the molecule.

Row | SMILES | IC50 [1] | IC50 [2] | IC50 [3, 4] | IC50 [3, 5] | IC50 [3, 6] | IC50 [3, 7]
16 | CN1CCN(c2ccc(CNCCc3nc4c(oc5ccc(Br)cc54)c(=O)[nH]3)cc2)CC1 [Compound 111, 8-bromo-2-[2-({[4-(4-methylpiperazin-1-yl)phenyl]methyl}amino)ethyl][1]benzofuro[3,2-d]pyrimidin-4(3H)-one] | < 10 µM | < 10 µM | < 10 µM |  |  | 
17 | O=c1[nH]c(CN2CC3CCC2C3O)nc2c1oc1ccc(Br)cc12 (racemic) [Compound 332, 8-bromo-2-((7-hydroxy-2-azabicyclo[2.2.1]heptan-2-yl)methyl)benzofuro[3,2-d]pyrimidin-4(3H)-one] | < 10 µM | < 10 µM | < 10 µM | < 0.1 µM |  | 
18 | Nc1ccc(Cl)c(-c2nc3c(oc4ccc(Br)cc43)c(=O)[nH]2)c1 [Compound 134, 2-(5-amino-2-chlorophenyl)-8-bromo[1]benzofuro[3,2-d]pyrimidin-4(3H)-one] | < 10 µM | < 10 µM | < 10 µM |  |  | 
19 | CC(C)(N)c1nc2c(oc3ccc(Cl)cc32)c(=O)[nH]1 [Compound 49, 2-(1-Amino-1-methylethyl)-8-chloro[1]benzofuro[3,2-d]pyrimidin-4(3H)-one] | < 10 µM | < 10 µM | < 10 µM | < 0.1 µM |  | 
20 | O=C(O)C1CCN(Cc2nc3c(oc4ccc(Br)cc43)c(=O)[nH]2)C1 (centres unmarked) [Compound 103, 1-[(8-bromo-4-oxo-3,4-dihydro[1]benzofuro[3,2-d]pyrimidin-2-yl)methyl]pyrrolidine-3-carboxylic acid] | < 10 µM | < 10 µM | < 10 µM | < 0.1 µM |  | 
21 | Nc1ccc(-c2nc3c(oc4ccc(Br)cc43)c(=O)[nH]2)c(Cl)c1 [Compound 34, 2-(4-Amino-2-chlorophenyl)-8-bromo[1]benzofuro[3,2-d]pyrimidin-4(3H)-one] | < 10 µM | < 10 µM | < 10 µM |  |  | 
22 | CC(N)c1nc2c(oc3ccc(Br)cc32)c(=O)[nH]1 (centres unmarked) [Compound 175, 2-(1-aminoethyl)-8-bromo[1]benzofuro[3,2-d]pyrimidin-4(3H)-one] | < 10 µM | < 10 µM | < 10 µM | < 0.1 µM |  | 
23 | O=c1[nH]c(CN2CC3CCC2C3O)nc2c1oc1ccc(Br)cc12 (centres unmarked) [Compound 412, 8-bromo-2-[(7-hydroxy-2-azabicyclo[2.2.1]hept-2-yl)methyl][1]benzofuro[3,2-d]pyrimidin-4(3H)-one] | < 10 µM | < 10 µM | < 10 µM | < 0.1 µM |  | 
24 | O=c1[nH]c(C2CNC2)nc2c1oc1ccc(Br)cc12 [Compound 198, 2-Azetidin-3-yl-8-bromo[1]benzofuro[3,2-d]pyrimidin-4(3H)-one] | < 10 µM | < 10 µM | < 10 µM | < 0.1 µM |  | 
25 | O=c1c2oc3ccc(Br)cc3c2nc2n1CN1CCC[C@@H]21 [Compound 453, (13bS)-11-bromo-1,2,3,13b-tetrahydro-7H-[1]benzofuro[3,2-d]pyrrolo[1′,2′:3,4]imidazo[1,5-a]pyrimidin-7-one] | < 10 µM | < 10 µM | < 10 µM | < 0.1 µM |  | 
26 | O=C(CC1CCNCC1)Nc1ccc(-c2nc3c(oc4ccc(Br)cc43)c(=O)[nH]2)c(Cl)c1 [Compound 217, N-[4-(8-bromo-4-oxo-3,4-dihydro[1]benzofuro[3,2-d]pyrimidin-2-yl)-3-chlorophenyl]-2-piperidin-4-ylacetamide] | < 10 µM | < 10 µM | < 10 µM |  |  | 
27 | O=c1[nH]c(CN2C[C@@H]3C[C@H]2CN3)nc2c1oc1ccc(Br)cc12 [Compound 119, 8-bromo-2-[(1S,4S)-2,5-diazabicyclo[2.2.1]hept-2-ylmethyl][1]benzofuro[3,2-d]pyrimidin-4(3H)-one] | < 10 µM | < 10 µM |  |  | < 10 µM | < 0.1 µM
28 | C[C@@H]1CNC[C@H](C)N1Cc1nc2c(oc3ccc(Br)cc32)c(=O)[nH]1 [Compound 216, 8-bromo-2-{[(2R,6S)-2,6-dimethylpiperazin-1-yl]methyl}[1]benzofuro[3,2-d]pyrimidin-4(3H)-one] | < 10 µM | < 10 µM | < 10 µM | < 0.1 µM |  | 
29 | O=c1[nH]c([C@@H]2CC3CCCCC3N2)nc2c1oc1ccc(Br)cc12 (stereo partly drawn) [Compound 501, 8-bromo-2-[(2S)-octahydro-1H-indol-2-yl][1]benzofuro[3,2-d]pyrimidin-4(3H)-one] | < 10 µM | < 10 µM |  |  | < 10 µM | < 0.1 µM
